Data published in patent US9145392B2, “Imidazole amines as modulators of kinase activity” (Merck Patent GmbH, priority 2011, dated 2015).
pIC50: −log10 of the molar value.

Legend:
P70S6K (T412E mutant) = P70S6K (T412E mutant) (Homo sapiens (Human), UniProt P23443, T412E); assay: P70S6K enzyme assay; type: biochemical; settings: read-out: IC50 p70S6K
Summary of the method: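 Phosphorylated product and substrate peptide separated by microfluidic capillary electrophoresis (Caliper LabChip 3000), product peaks resolving before substrate.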

His-AKT (Full Length) = His-AKT (Full Length) (Homo sapiens (Human), UniProt P31749); assay: AKT enzyme assay; type: biochemical; settings: read-out: IC50 AKT
Sequence of His-AKT (Full Length) (P31749 whole entry): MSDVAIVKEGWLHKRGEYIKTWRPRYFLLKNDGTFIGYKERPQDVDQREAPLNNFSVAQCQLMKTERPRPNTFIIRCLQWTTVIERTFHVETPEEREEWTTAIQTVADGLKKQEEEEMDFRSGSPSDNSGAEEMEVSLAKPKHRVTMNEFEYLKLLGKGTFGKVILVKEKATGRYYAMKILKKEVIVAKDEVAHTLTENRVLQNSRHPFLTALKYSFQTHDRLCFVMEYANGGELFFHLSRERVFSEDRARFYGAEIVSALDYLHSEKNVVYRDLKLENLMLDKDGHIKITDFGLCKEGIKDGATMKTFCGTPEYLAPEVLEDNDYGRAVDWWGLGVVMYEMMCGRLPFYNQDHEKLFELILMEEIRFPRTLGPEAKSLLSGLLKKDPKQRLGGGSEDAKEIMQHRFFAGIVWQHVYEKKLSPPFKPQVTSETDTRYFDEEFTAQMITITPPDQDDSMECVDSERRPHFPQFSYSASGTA

Sequence of P70S6K (T412E mutant) (P23443 whole entry T412E): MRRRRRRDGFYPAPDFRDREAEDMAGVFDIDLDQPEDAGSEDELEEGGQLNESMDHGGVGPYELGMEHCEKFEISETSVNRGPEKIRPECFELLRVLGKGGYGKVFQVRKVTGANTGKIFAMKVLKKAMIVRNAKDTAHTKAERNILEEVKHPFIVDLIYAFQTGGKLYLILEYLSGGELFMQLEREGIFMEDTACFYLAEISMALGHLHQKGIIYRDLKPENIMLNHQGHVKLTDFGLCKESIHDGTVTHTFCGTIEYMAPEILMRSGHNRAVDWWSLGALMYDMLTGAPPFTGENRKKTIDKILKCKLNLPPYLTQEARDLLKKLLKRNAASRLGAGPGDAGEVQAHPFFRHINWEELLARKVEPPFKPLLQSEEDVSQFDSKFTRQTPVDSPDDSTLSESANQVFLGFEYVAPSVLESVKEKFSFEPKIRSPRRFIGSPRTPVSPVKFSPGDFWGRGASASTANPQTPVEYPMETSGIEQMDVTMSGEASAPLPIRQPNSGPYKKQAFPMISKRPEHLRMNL

pIC50 (P70S6K (T412E mutant)) | pIC50 (His-AKT (Full Length)) | SMILES
8.39 | 7.64 | CCc1c(N)ncnc1N1CCC(c2nc(-c3ccc(F)c(C)c3)cn2CCN(C)C)CC1 [Compound 295]
8.80 | 8.59 | CCc1c(N)ncnc1N1CCC(c2nc(-c3ccc(F)c(C)c3)cn2CCN(CC)CC)CC1 [Compound 296]
8.41 | 8.18 | CCc1c(N)ncnc1N1CCC(c2nc(-c3ccc(F)c(C)c3)cn2CCN2CCCC2)CC1 [Compound 297]
8.17 | 8.18 | CCOc1c(N)ncnc1N1CCC(c2nc(-c3ccc(F)c(C)c3)cn2CCN2CCCC2)CC1 [Compound 298]
8.00 | 8.05 | Cc1cc(-c2cn(CCN3CCCC3)c(C3CCN(c4ncnc(N)c4OC(C)C)CC3)n2)ccc1F [Compound 299]
8.51 | 8.05 | CCc1c(N)ncnc1N1CCC(c2nc(-c3ccc(F)c(C)c3)cn2CCN(CC)C(C)C)CC1 [Compound 300]
7.92 | 8.20 | CCN(CCn1cc(-c2ccc(F)c(C)c2)nc1C1CCN(c2ncnc(N)c2OC(C)C)CC1)C(C)C [Compound 302]
8.62 | 9.10 | CCOc1c(N)ncnc1N1CCC(c2nc(-c3ccc(F)c(C)c3)cn2CCN(CC)CC)CC1 [Compound 303]
8.34 | 8.59 | CCN(CC)CCn1cc(-c2ccc(F)c(C)c2)nc1C1CCN(c2ncnc(N)c2OC(C)C)CC1 [Compound 304]
8.72 | 8.49 | N#Cc1c(N)ncnc1N1CCC(c2nc(-c3ccc(F)c(C(F)(F)F)c3)cn2CCN2CCCC2)CC1 [Compound 305]
8.70 | 8.12 | N#Cc1c(N)ncnc1N1CCC(c2nc(-c3ccc(F)c(F)c3)cn2CCN2CCCC2)CC1 [Compound 306, 4-amino-6{4-(3,4-difluorophenyl-1-2-(pyrrolidin-1-yl-ethyl)-1H-imidazol-2-yl]-piperidin-1-yl}-pyrimidin-5-carbonitrile]
9.10 | 8.82 | N#Cc1c(N)ncnc1N1CCC(c2nc(-c3ccc(F)c(Cl)c3)cn2CCN2CCCC2)CC1 [Compound 307]
8.59 | 7.89 | N#Cc1c(N)ncnc1N1CCC(c2nc(-c3ccc(F)cc3)cn2CCN2CCCC2)CC1 [Compound 308]
8.59 | 7.68 | N#Cc1c(N)ncnc1N1CCC(c2nc(-c3cccc(F)c3)cn2CCN2CCCC2)CC1 [Compound 309]
8.64 | 8.12 | N#Cc1c(N)ncnc1N1CCC(c2nc(-c3cccc(C(F)(F)F)c3)cn2CCN2CCCC2)CC1 [Compound 310]
8.64 | 8.08 | N#Cc1c(N)ncnc1N1CCC(c2nc(-c3cccc(Cl)c3)cn2CCN2CCCC2)CC1 [Compound 311]
8.72 | 8.64 | N#Cc1c(N)ncnc1N1CCC(c2nc(-c3ccc(F)c(C(F)(F)F)c3)cn2CCN2CCCCC2)CC1 [Compound 312]
8.80 | 8.03 | N#Cc1c(N)ncnc1N1CCC(c2nc(-c3ccc(F)c(F)c3)cn2CCN2CCC2)CC1 [Compound 313]
8.74 | 8.39 | N#Cc1c(N)ncnc1N1CCC(c2nc(-c3ccc(OC(F)F)c(F)c3)cn2CCN2CCC2)CC1 [Compound 314]
7.00 | 6.30 | N#Cc1c(N)ncnc1N1CCC(c2nc(-c3cc[nH]c(=O)c3)cn2CCN2CCC2)CC1 [Compound 315]

pIC50 (P70S6K (T412E mutant)) | pIC50 (His-AKT (Full Length)) | SMILES
9.10 | 7.62 | Cc1ccc(-c2cn(CCN3CCC3)c(C3CCN(c4ncnc(N)c4C#N)CC3)n2)cc1C(F)(F)F [Compound 316]
8.77 | 7.96 | CC(C)c1cc(-c2cn(CCN3CCC3)c(C3CCN(c4ncnc(N)c4C#N)CC3)n2)ccn1 [Compound 317]
8.85 | 7.82 | CCc1cc(-c2cn(CCN3CCC3)c(C3CCN(c4ncnc(N)c4C#N)CC3)n2)ccn1 [Compound 318]
8.77 | 7.64 | N#Cc1c(N)ncnc1N1CCC(c2nc(-c3ccnc(C4CC4)c3)cn2CCN2CCC2)CC1 [Compound 319]
8.80 | 7.32 | Cc1ccc(-c2cn(CCN3CCC3)c(C3CCN(c4ncnc(N)c4C#N)CC3)n2)cc1F [Compound 320]
8.59 | 7.23 | COc1ccc(-c2cn(CCN3CCC3)c(C3CCN(c4ncnc(N)c4C#N)CC3)n2)cc1F [Compound 321]
8.89 | 7.89 | Cc1ccc(-c2cn(CCN3CCC3)c(C3CCN(c4ncnc(N)c4C#N)CC3)n2)cc1Cl [Compound 322]
8.08 | 7.51 | COc1ccc(-c2cn(CCN3CCC3)c(C3CCN(c4ncnc(N)c4C#N)CC3)n2)cc1Cl [Compound 323]
8.55 | 8.46 | Cc1cc(-c2cn(CCN3CCCC3)c(C3CCN(c4ncnc(N)c4C#N)CC3)n2)ccc1F [Compound 324]
9.30 | 9.05 | Cc1cc(-c2cn(CCN(C)C)c(C3CCN(c4ncnc(N)c4C#N)CC3)n2)ccc1F [Compound 325]
8.57 | 8.60 | CCN(CC)CCn1cc(-c2ccc(F)c(C)c2)nc1C1CCN(c2ncnc(N)c2C#N)CC1 [Compound 326]
8.28 | 8.55 | CCN(CCn1cc(-c2ccc(F)c(C)c2)nc1C1CCN(c2ncnc(N)c2C#N)CC1)C(C)C [Compound 327]
8.09 | 6.85 | NC(=O)c1c(N)ncnc1N1CCC(c2nc(-c3ccc(F)c(F)c3)cn2CCN2CCC2)CC1 [Compound 328]
7.85 | 6.92 | NC(=O)c1c(N)ncnc1N1CCC(c2nc(-c3ccc(F)c(F)c3)cn2CCN2CCCC2)CC1 [Compound 329]
8.44 | 7.85 | NC(=O)c1c(N)ncnc1N1CCC(c2nc(-c3ccc(F)c(Cl)c3)cn2CCN2CCCC2)CC1 [Compound 330]
8.34 | 7.82 | NC(=O)c1c(N)ncnc1N1CCC(c2nc(-c3ccc(F)c(C(F)(F)F)c3)cn2CCN2CCCC2)CC1 [Compound 331]
8.42 | 7.43 | CC(C)c1cc(-c2cn(CCN3CCC3)c(C3CCN(c4ncnc(N)c4C(N)=O)CC3)n2)ccn1 [Compound 332]
7.68 | 6.42 | NC(=O)c1c(N)ncnc1N1CCC(c2nc(-c3ccc(F)cc3)cn2CCN2CCCC2)CC1 [Compound 333]
7.59 | 6.21 | NC(=O)c1c(N)ncnc1N1CCC(c2nc(-c3cccc(F)c3)cn2CCN2CCCC2)CC1 [Compound 334]
7.89 | 7.04 | NC(=O)c1c(N)ncnc1N1CCC(c2nc(-c3cccc(C(F)(F)F)c3)cn2CCN2CCCC2)CC1 [Compound 335]

pIC50 (P70S6K (T412E mutant)) | pIC50 (His-AKT (Full Length)) | SMILES
8.12 | 7.12 | NC(=O)c1c(N)ncnc1N1CCC(c2nc(-c3cccc(Cl)c3)cn2CCN2CCCC2)CC1 [Compound 336]
8.46 | 7.96 | NC(=O)c1c(N)ncnc1N1CCC(c2nc(-c3ccc(F)c(C(F)(F)F)c3)cn2CCN2CCCCC2)CC1 [Compound 337]
8.70 | 7.54 | NC(=O)c1c(N)ncnc1N1CCC(c2nc(-c3ccc(F)c(OC(F)F)c3)cn2CCN2CCC2)CC1 [Compound 338]
5.57 | 5.24 | NC(=O)c1c(N)ncnc1N1CCC(c2nc(-c3cc[nH]c(=O)c3)cn2CCN2CCC2)CC1 [Compound 339]
8.40 | 6.38 | Cc1ccc(-c2cn(CCN3CCC3)c(C3CCN(c4ncnc(N)c4C(N)=O)CC3)n2)cc1C(F)(F)F [Compound 340]
7.96 | 6.35 | CCc1cc(-c2cn(CCN3CCC3)c(C3CCN(c4ncnc(N)c4C(N)=O)CC3)n2)ccn1 [Compound 341]
8.43 | 7.21 | NC(=O)c1c(N)ncnc1N1CCC(c2nc(-c3ccnc(C4CC4)c3)cn2CCN2CCC2)CC1 [Compound 342]
8.26 | 6.77 | CC(C)(C)c1cc(-c2cn(CCN3CCC3)c(C3CCN(c4ncnc(N)c4C(N)=O)CC3)n2)ccn1 [Compound 343]
7.60 | 5.62 | Cc1ccc(-c2cn(CCN3CCC3)c(C3CCN(c4ncnc(N)c4C(N)=O)CC3)n2)cc1F [Compound 344]
7.00 | 4.89 | COc1ccc(-c2cn(CCN3CCC3)c(C3CCN(c4ncnc(N)c4C(N)=O)CC3)n2)cc1F [Compound 345]
8.41 | 6.66 | Cc1ccc(-c2cn(CCN3CCC3)c(C3CCN(c4ncnc(N)c4C(N)=O)CC3)n2)cc1Cl [Compound 346]
7.06 | 6.00 | COc1ccc(-c2cn(CCN3CCC3)c(C3CCN(c4ncnc(N)c4C(N)=O)CC3)n2)cc1Cl [Compound 347]
8.40 | 7.49 | Cc1cc(-c2cn(CCN(C)C)c(C3CCN(c4ncnc(N)c4C(N)=O)CC3)n2)ccc1F [Compound 348]
7.60 | 7.26 | CCN(CC)CCn1cc(-c2ccc(F)c(C)c2)nc1C1CCN(c2ncnc(N)c2C(N)=O)CC1 [Compound 349]
8.64 | 8.00 | Cc1cc(-c2cn(CCN3CCCC3)c(C3CCN(c4ncnc(N)c4C(N)=O)CC3)n2)ccc1F [Compound 350]
7.57 | 7.32 | CCN(CCn1cc(-c2ccc(F)c(C)c2)nc1C1CCN(c2ncnc(N)c2C(N)=O)CC1)C(C)C [Compound 351]
6.51 | 5.24 | CCc1c(N)ncnc1N1CCC(c2nc(-c3cnc(N(C)C)nc3)cn2CCN2CCC2)CC1 [Compound 352, 6-{4-[1-(2-Azetidin-1-yl-ethyl)-4-(2-dimethylamino-pyrimidin-5-yl)-1H-imidazol-2-yl]-piperidin-1-yl}-5-ethyl-pyrimidin-4-ylamine]
7.85 | 6.85 | N#Cc1c(N)ncnc1N1CCC(c2nc(-c3ccccc3F)cn2CCN2CCC2)CC1 [Compound 353, 4-Amino-6-{4-[1-(2-azetidin-1-yl-ethyl)-4-(2-fluoro-phenyl)-1H-imidazol-2-yl]-piperidin-1-yl}-pyrimidine-5-carbonitrile]
